This note sets out measurements from patent publication US11339171B2, “MDM2 inhibitors” (Gan & Lee Pharmaceuticals, priority 2017, dated 2022).

One assay deals with T1, MDM2 (Homo sapiens, UniProt Q00987).
T1 construct: made in house
The assay is described as follows: Inhibition test of MDM2-P53 (GST-MDM2, Biotin-P53, Anti-GST-Tb, SA-XL665). Type of assay: binding. The procedure, abridged:
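Binding was measured by TR-FRET with GST-MDM2 at 4 nM final in PBS with 0.1% BSA, 5 mM DTT and 1 mM AEBSF. Compounds were tested as twelve-point 5-fold dilutions and incubated with the detection mix for 90 min at 25 °C with shaking before plate-reader reading and curve fitting.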

Assay [1] relates to human osteosarcoma cell line SJSA-1. Briefly: Inhibition of proliferation of human osteosarcoma cell line SJSA-1 (DAPI staining, In Cell Analyzer). The settings on record: Homo sapiens, SJSA-1, 72 h, read-out: IC50 (nM), inhibitory activity on proliferation of human osteosarcoma cell line SJSA-1, SJSA-1, incubated 72 h.

T1 sequence (Q00987 whole entry): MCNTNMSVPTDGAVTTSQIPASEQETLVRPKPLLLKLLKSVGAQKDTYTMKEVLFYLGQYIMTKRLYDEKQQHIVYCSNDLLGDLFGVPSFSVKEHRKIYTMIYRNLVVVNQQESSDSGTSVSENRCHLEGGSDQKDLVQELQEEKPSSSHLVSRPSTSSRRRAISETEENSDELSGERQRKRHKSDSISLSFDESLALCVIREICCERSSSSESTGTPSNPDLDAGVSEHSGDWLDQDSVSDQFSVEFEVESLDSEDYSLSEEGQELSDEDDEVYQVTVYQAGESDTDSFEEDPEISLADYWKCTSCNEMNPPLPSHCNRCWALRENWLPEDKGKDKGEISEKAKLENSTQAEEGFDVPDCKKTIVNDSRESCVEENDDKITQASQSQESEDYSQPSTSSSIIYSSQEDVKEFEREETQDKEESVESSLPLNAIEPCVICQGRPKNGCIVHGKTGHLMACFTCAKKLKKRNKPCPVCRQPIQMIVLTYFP

Turning to `COc1cc(C(F)(F)F)ccc1-c1nc2c(n1C(C)C)[C@]1(C(=O)Nc3cc(Cl)ccc31)N(c1cc(Cl)cnc1C)C2=O` [Example R-144, (R)-6-chloro-5′-(5-chloro-2-methylpyridin-3-yl)-3′-isopropyl-2′-(2-methoxy-4-(trifluoromethyl)phenyl)-3′H-spiro[dihydroindole-3,4′-pyrrolo[3,4-d]imidazole]-2,6′(5′H)-dione], the IC50 at MDM2 came to 119 nM; in assay [1] it was 2450 nM.

For the compound `COc1nc(OCC(F)F)ncc1-c1nc2c(n1C(C)C)[C@]1(C(=O)Nc3cc(Cl)ccc31)N(c1cc(Cl)ccc1C)C2=O` [Example R-147, (R)-6-chloro-5′-(5-chloro-2-methylphenyl)-2′-(2-(2,2-difluoroethoxy)-4-methoxypyrimidin-5-yl)-3′-isopropyl-3′H-spiro[dihydroindole-3,4′-pyrrolo[3,4-d]imidazole]-2,6′(5′H)-dione], the IC50 amounted to 119 nM on MDM2 and 5740 nM in assay [1].

Consider `COc1cc(OC(F)F)ncc1-c1nc2c(n1C(C)C)[C@]1(C(=O)Nc3cc(Cl)ccc31)N(c1cc(Cl)ccc1C)C2=O` [Example R-150, (R)-6-chloro-5′-(5-chloro-2-methylphenyl)-2′-(6-(difluoromethoxy)-4-methoxypyridin-3-yl)-3′-isopropyl-3′H-spiro[dihydroindole-3,4′-pyrrolo[3,4-d]imidazole]-2,6′(5′H)-dione], for which the IC50 stood at 377 nM against MDM2 and 5700 nM in assay [1].

Regarding `COc1cc(N(C)C)ncc1-c1nc2c(n1C(C)C)[C@]1(C(=O)Nc3cc(Cl)ccc31)N(c1cc(Cl)cnc1C)C2=O` [Example R-155, (R)-6-chloro-5′-(5-chloro-2-methylpyridin-3-yl)-2′-(6-(dimethylamino)-4-methoxypyridin-3-yl)-3′-isopropyl-3′H-spiro[dihydroindole-3,4′-pyrrolo[3,4-d]imidazole]-2,6′(5′H)-dione], the IC50 against MDM2 amounted to 96.4 nM; in assay [1], 1520 nM.

For the compound `COc1nc(N(C)C)ccc1-c1nc2c(n1C(C)C)[C@]1(C(=O)Nc3cc(Cl)ccc31)N(c1cc(Cl)ccc1C)C2=O` [Example R-157, (R)-6-chloro-5′-(5-chloro-2-methylphenyl)-2′-(6-(dimethylamino)-2-methoxypyridin-3-yl)-3′-isopropyl-3′H-spiro[dihydroindole-3,4′-pyrrolo[3,4-d]imidazole]-2,6′(5′H)-dione], the results for the IC50 (on MDM2; in assay [1]) were 370 nM and 1800 nM, respectively.

Regarding `COc1nc(C2CC2)ncc1-c1nc2c(n1C(C)C)[C@]1(C(=O)Nc3cc(Cl)ccc31)N(c1cc(Cl)cnc1C)C2=O` [Example R-159, (R)-6-chloro-5′-(5-chloro-2-methylpyridin-3-yl)-2′-(2-cyclopropyl-4-methoxypyrimidin-5-yl)-3′-isopropyl-3′H-spiro[dihydroindole-3,4′-pyrrolo[3,4-d]imidazole]-2,6′(5′H)-dione], the results for the IC50 (against MDM2; in assay [1]) were 468 nM and 5330 nM, respectively.

On to `COc1cc(N(C)CCO)ccc1-c1nc2c(n1C(C)C)[C@]1(C(=O)Nc3cc(Cl)ccc31)N(c1cc(Cl)ccc1C)C2=O` [Example R-162, (R)-6-chloro-5′-(5-chloro-2-methylphenyl)-2′-(4-((2-hydroxyethyl)(methyl)amino)-2-methoxyphenyl)-3′-isopropyl-3′H-spiro[dihydroindole-3,4′-pyrrolo[3,4-d]imidazole]-2,6′(5′H)-dione], for which the results for the IC50 (against MDM2; in assay [1]) were 120 nM and 782 nM, respectively.

`COc1cc(OCCF)ncc1-c1nc2c(n1C(C)C)[C@]1(C(=O)Nc3cc(Cl)ccc31)N(c1cccc(Cl)c1)C2=O` [Example R-177, (R)-6-chloro-5′-(3-chlorophenyl)-2′-(6-(2-fluoroethoxy)-4-methoxypyridin-3-yl)-3′-isopropyl-3′H-spiro[dihydroindole-3,4′-pyrrolo[3,4-d]imidazole]-2,6′(5′H)-dione]: the IC50 turned out to be 109 nM on MDM2 and 4250 nM in assay [1].

`CCOc1ncc(-c2nc3c(n2C(C)C)[C@]2(C(=O)Nc4cc(Cl)ccc42)N(c2cc(F)cc(Cl)c2)C3=O)c(OC)n1` [Example R-180, (R)-6-chloro-5′-(3-chloro-5-fluorophenyl)-2′-(2-ethoxy-4-methoxypyrimidin-5-yl)-3′-isopropyl-3′H-spiro[dihydroindole-3,4′-pyrrolo[3,4-d]imidazole]-2,6′(5′H)-dione]: the IC50 on MDM2 turned out to be 679 nM; in assay [1], 2170 nM.

Turning to `COc1ncc(-c2nc3c(n2C(C)C)[C@@]2(C(=O)Nc4cc(Cl)ccc42)N(c2ccc(F)c(Cl)c2)C3=O)c(OC)n1` [Example S-3, (S)-6-chloro-5′-(3-chloro-4-fluorophenyl)-2′-(2,4-dimethoxypyrimidin-5-yl)-3′-isopropyl-3′H-spiro[dihydroindole-3,4′-pyrrolo[3,4-d]imidazole]-2,6′(5′H)-dione], the results for the IC50 (at MDM2; in assay [1]) were 4.92 nM and 174 nM, respectively.

Turning to `COc1cc(F)ccc1-c1nc2c(n1C(C)C)[C@@]1(C(=O)Nc3cc(Cl)ccc31)N(c1cc(Cl)ccc1C)C2=O` [Example S-4, (S)-6-chloro-5′-(5-chloro-2-methylphenyl)-2′-(4-fluoro-2-methoxyphenyl)-3′-isopropyl-3′H-spiro[dihydroindole-3,4′-pyrrolo[3,4-d]imidazole]-2,6′(5′H)-dione], the IC50 on MDM2 worked out at 3.37 nM; in assay [1] it was 7.92 nM.

`COc1ccccc1-c1nc2c(n1C(C)C)[C@@]1(C(=O)Nc3cc(Cl)ccc31)N(c1cc(Cl)ccc1C)C2=O` [Example S-5, (S)-6-chloro-5′-(5-chloro-2-methylphenyl)-3′-isopropyl-2′-(2-methoxyphenyl)-3′H-spiro[dihydroindole-3,4′-pyrrolo[3,4-d]imidazole]-2,6′(5′H)-dione]: the IC50 at MDM2 came out at 3.22 nM; in assay [1], 25.4 nM.

With `CCc1ccccc1-c1nc2c(n1C(C)C)[C@@]1(C(=O)Nc3cc(Cl)ccc31)N(c1cc(Cl)ccc1C)C2=O` [Example S-7, (S)-6-chloro-5′-(5-chloro-2-methylphenyl)-2′-(2-ethylphenyl)-3′-isopropylisopropyl-3′H-spiro[dihydroindole-3,4′-pyrrolo[3,4-d]imidazole]-2,6′(5′H)-dione], the IC50 turned out to be 73.2 nM against MDM2 and 1270 nM in assay [1].

In the case of `COc1ccc(-c2nc3c(n2C(C)C)[C@@]2(C(=O)Nc4cc(Cl)ccc42)N(c2cc(Cl)ccc2C)C3=O)c(OC)n1` [Example S-8, (S)-6-chloro-5′-(5-chloro-2-methylphenyl)-2′-(2,6-dimethoxypyridin-3-yl)-3′-isopropyl-3′H-spiro[dihydroindole-3,4′-pyrrolo[3,4-d]imidazole]-2,6′(5′H)-dione], the IC50 came to 3.29 nM at MDM2 and 10.3 nM in assay [1].

Turning to `COc1cnccc1-c1nc2c(n1C(C)C)[C@@]1(C(=O)Nc3cc(Cl)ccc31)N(c1cc(Cl)ccc1C)C2=O` [Example S-10, (S)-6-chloro-5′-(5-chloro-2-methylphenyl)-3′-isopropyl-2′-(3-methoxypyridin-4-yl)-3′H-spiro[dihydroindole-3,4′-pyrrolo[3,4-d]imidazole]-2,6′(5′H)-dione], the IC50 on MDM2 was found to be 2.77 nM; in assay [1], 124 nM.

In the case of `COc1cc(C#N)ccc1-c1nc2c(n1C(C)C)[C@@]1(C(=O)Nc3cc(Cl)ccc31)N(c1cc(Cl)ccc1C)C2=O` [Example S-12, (S)-4-(6-chloro-5′-(5-chloro-2-methylphenyl)-3′-isopropyl-2,6′-dioxo-5′,6′-dihydro-3′H-spiro[dihydroindole-3,4′-pyrrolo[3,4-d]imidazole]-2′-yl)-3-methoxybenzonitrile], the IC50 against MDM2 was 3.55 nM; in assay [1] it was 5.27 nM.

`COc1ccc(C#N)cc1-c1nc2c(n1C(C)C)[C@@]1(C(=O)Nc3cc(Cl)ccc31)N(c1cc(Cl)ccc1C)C2=O` [Example S-13, (S)-3-(6-chloro-5′-(5-chloro-2-methylphenyl)-3′-isopropyl-2,6′-dioxo-5′,6′-dihydro-3′H-spiro[dihydroindole-3,4′-pyrrolo[3,4-d]imidazole]-2′-yl)-4-methoxybenzonitrile]: the IC50 on MDM2 amounted to 2.55 nM; in assay [1], 5.95 nM.

For the compound `CCc1ccc(Cl)cc1N1C(=O)c2nc(-c3cnc(OC)nc3OC)n(C(C)C)c2[C@@]12C(=O)Nc1cc(Cl)ccc12` [Example S-15, (S)-6-chloro-5′-(5-chloro-2-ethylphenyl)-2′-(2,4-dimethoxypyrimidin-5-yl)-3′-isopropyl-3′H-spiro[dihydroindole-3,4′-pyrrolo[3,4-d]imidazole]-2,6′(5′H)-dione], the IC50 at MDM2 turned out to be 1.62 nM; in assay [1], 10.9 nM.

Regarding `COc1ncc(-c2nc3c(n2C(C)C)[C@@]2(C(=O)Nc4cc(Cl)ccc42)N(c2cc(Cl)cn(C)c2=O)C3=O)c(OC)n1` [Example S-16, (S)-6-chloro-5′-(5-chloro-1-methyl-2-oxo-1,2-dihydropyridin-3-yl)-2′-(2,4-dimethoxypyrimidin-5-yl)-3′-isopropyl-3′H-spiro[dihydroindole-3,4′-pyrrolo[3,4-d]imidazole]-2,6′(5′H)-dione], the IC50 on MDM2 came out at 3.39 nM; in assay [1], 3560 nM.

Take `COc1ncc(-c2nc3c(n2C(C)C)[C@@]2(C(=O)Nc4cc(Cl)ccc42)N(c2cc(Cl)ccc2OC)C3=O)c(OC)n1` [Example S-17, (S)-6-chloro-5′-(5-chloro-2-methoxyphenyl)-2′-(2,4-dimethoxypyrimidin-5-yl)-3′-isopropyl-3′H-spiro[dihydroindole-3,4′-pyrrolo[3,4-d]imidazole]-2,6′(5′H)-dione]: the values for the IC50 (against MDM2; in assay [1]) were 3.75 nM and 201 nM, respectively.

As to `COc1ccncc1-c1nc2c(n1C(C)C)[C@@]1(C(=O)Nc3cc(Cl)ccc31)N(c1cc(Cl)ccc1C)C2=O` [Example S-18, (S)-6-chloro-5′-(5-chloro-2-methylphenyl)-3′-isopropyl-2′-(4-methoxypyridin-3-yl)-3′H-spiro[dihydroindole-3,4′-pyrrolo[3,4-d]imidazole]-2,6′(5′H)-dione], the results for the IC50 (against MDM2; in assay [1]) were 1.43 nM and 13.9 nM, respectively.
